Laboratory results as given in ChEMBL document CHEMBL4043266, “Pentacyclic triterpenes as α-glucosidase and α-amylase inhibitors: Structure-activity relationships and the synergism with acarbose” (Bioorg Med Chem Lett, 2017).

Legend:
Pancreatic alpha-amylase = target: T1, Pancreatic alpha-amylase (Sus scrofa, UniProt P00690); assay: Inhibition of porcine pancreatic alpha-amylase using starch as substrate preincubated for 15 mins followed by substrate addition measured after 10 mins by dinitrosalicylic acid reagent based assay
T1 sequence (P00690 whole entry): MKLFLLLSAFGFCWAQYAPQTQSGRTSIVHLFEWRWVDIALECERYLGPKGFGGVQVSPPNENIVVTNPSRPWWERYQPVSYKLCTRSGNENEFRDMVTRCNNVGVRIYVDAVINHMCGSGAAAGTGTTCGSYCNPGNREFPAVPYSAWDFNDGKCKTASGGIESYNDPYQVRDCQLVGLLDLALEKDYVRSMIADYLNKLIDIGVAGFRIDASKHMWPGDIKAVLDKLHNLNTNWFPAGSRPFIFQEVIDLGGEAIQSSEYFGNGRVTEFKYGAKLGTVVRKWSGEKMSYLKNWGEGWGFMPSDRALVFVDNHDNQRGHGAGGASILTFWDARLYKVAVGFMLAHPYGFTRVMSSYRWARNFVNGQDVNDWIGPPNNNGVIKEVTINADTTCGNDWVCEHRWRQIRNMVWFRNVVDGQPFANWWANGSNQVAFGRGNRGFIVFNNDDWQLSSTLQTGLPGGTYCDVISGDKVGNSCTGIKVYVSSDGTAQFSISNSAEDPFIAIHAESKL

[1] = Inhibition of yeast alpha-glucosidase using 4-nitrophenyl-alpha-D-glucopyranoside as substrate preincubated for 15 mins followed by substrate addition measured after 20 mins; parameters: species or system Saccharomyces cerevisiae

Row | IC50 (Pancreatic alpha-amylase) [µM] | IC50 [1] [µM] | SMILES
1 | > 200 | 100 | C[C@H]1[C@H](C)CC[C@]2(C(=O)O)CC[C@]3(C)C(=CC[C@@H]4[C@@]5(C)C[C@@H](O)[C@H](O)[C@@](C)(CO)[C@@H]5CC[C@]43C)[C@H]12 [ASIATIC ACID]
2 | > 200 | > 200 | CC1(C)[C@@H](O)CC[C@]2(C)[C@H]3C(=O)C=C4[C@@H]5C[C@@](C)(C(=O)O)CC[C@]5(C)CC[C@@]4(C)[C@]3(C)CC[C@@H]12 [ENOXOLONE]
3 | 31.2 | 17.2 | C[C@H]1[C@H](C)CC[C@]2(C(=O)O)CC[C@]3(C)C(=CC[C@@H]4[C@@]5(C)C[C@@H](O)[C@H](O)C(C)(C)[C@@H]5CC[C@]43C)[C@H]12 [COROSOLIC ACID]
4 |  | 2480 | C[C@H]1O[C@H](O[C@H]2[C@H](O)[C@@H](O)[C@@H](O[C@H]3[C@H](O)[C@@H](O)C(O)O[C@@H]3CO)O[C@@H]2CO)[C@H](O)[C@@H](O)[C@@H]1N[C@H]1C=C(CO)[C@@H](O)[C@H](O)[C@H]1O (some centres not stated) [ACARBOSE]
5 | > 200 | > 200 | C[C@H]1[C@H](C)CC[C@]2(C(=O)O[C@@H]3O[C@H](CO[C@@H]4O[C@H](CO)[C@@H](O[C@@H]5O[C@@H](C)[C@H](O)[C@@H](O)[C@H]5O)[C@H](O)[C@H]4O)[C@@H](O)[C@H](O)[C@H]3O)CC[C@]3(C)C(=CC[C@@H]4[C@@]5(C)C[C@@H](O)[C@H](O)[C@@](C)(CO)[C@@H]5CC[C@]43C)[C@H]12
6 |  | 35.6 | CC1(C)CC[C@]2(C(=O)O)CC[C@]3(C)C(=CC[C@@H]4[C@@]5(C)CC[C@H](O)C(C)(C)[C@@H]5CC[C@]43C)[C@@H]2C1 [OLEANOLIC_ACID]
7 | > 200 | > 200 | CC1(C)[C@@H](O[C@H]2O[C@H](C(=O)O)[C@@H](O)[C@H](O)[C@H]2O[C@@H]2O[C@H](C(=O)O)[C@@H](O)[C@H](O)[C@H]2O)CC[C@]2(C)[C@H]3C(=O)C=C4[C@@H]5C[C@@](C)(C(=O)O)CC[C@]5(C)CC[C@@]4(C)[C@]3(C)CC[C@@H]12 [GLYCYRRHIZIN]
8 |  | 12.1 | C[C@H]1[C@H](C)CC[C@]2(C(=O)O)CC[C@]3(C)C(=CC[C@@H]4[C@@]5(C)CC[C@H](O)C(C)(C)[C@@H]5CC[C@]43C)[C@H]12 [URSOLIC ACID]

Row | SMILES | IC50 (Pancreatic alpha-amylase) [µM] | IC50 [1] [µM]
9 | C=C(C)[C@@H]1CC[C@]2(C(=O)O)CC[C@]3(C)[C@H](CC[C@@H]4[C@@]5(C)CC[C@H](O)C(C)(C)[C@@H]5CC[C@]43C)[C@@H]12 [BETULINIC ACID] | > 200 | 14.9
10 | C=C(C)[C@@H]1CC[C@]2(CO)CC[C@]3(C)[C@H](CC[C@@H]4[C@@]5(C)CC[C@H](O)C(C)(C)[C@@H]5CC[C@]43C)[C@@H]12 [BETULIN] | > 200 | 52.5
